pKd: −log10 of the molar value.
Assays:
T-cell [1] = assay: IL-2 secretion from T-cells co-stimulated with anti-CD3 and anti-CD28 antibody (Biological Example 2); type: cell-based, human; conditions: Homo sapiens, T-cell, fold change over baseline, primary human total T-cells, read-out: IL-2 secretion Anti-CD3/Anti-CD28 stimulation; for fold induction at 0.3 µM: 0.3 μM Cbl-b inhibitor; for fold induction at 1 µM: 1 μM Cbl-b inhibitor; for fold induction at 4 µM: 4 μM Cbl-b inhibitor
How it was run: (§1)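 Values are fold-change over baseline: readings (IL-2 release, CD25 staining) from inhibitor-treated T-cells divided against untreated cells […]. No detailed procedure stated.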

Cbl-b (residues 36-427) = Cbl-b (residues 36-427) (Homo sapiens, UniProt Q13191); assay: Cbl-b binding assay (SPR, Biacore T200); conditions: 20° C., 1:1 binding model
Sequence of Cbl-b (residues 36-427) (Q13191 36-427): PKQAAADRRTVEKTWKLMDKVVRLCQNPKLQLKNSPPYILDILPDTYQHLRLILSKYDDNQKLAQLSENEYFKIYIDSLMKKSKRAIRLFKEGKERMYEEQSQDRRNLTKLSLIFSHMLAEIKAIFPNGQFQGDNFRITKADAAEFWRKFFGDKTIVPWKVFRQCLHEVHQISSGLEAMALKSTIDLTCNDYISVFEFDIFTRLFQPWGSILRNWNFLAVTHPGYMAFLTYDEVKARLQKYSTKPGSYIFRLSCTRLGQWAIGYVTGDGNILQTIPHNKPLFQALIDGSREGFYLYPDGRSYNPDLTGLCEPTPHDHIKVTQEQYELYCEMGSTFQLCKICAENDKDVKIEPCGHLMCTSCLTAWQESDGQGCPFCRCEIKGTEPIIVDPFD
How it was run: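 NeutrAvidin capture chip, 20° C; 50 s injections at 50 μl/min, 90-180 s dissociation; 0.3 M NaCl regeneration. Asterisked column: 50 mM NaCl buffer and 30 nM Src kinase in place of 100 mM NaCl and 60 nM Src kinase. 1:1 fit.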

T-cell [2] = assay: IL-2 secretion from T-cells stimulated with anti-CD3 antibody alone (Biological Example 2); type: cell-based, human; conditions: T-cell, fold change over baseline, primary human total T-cells, read-out: IL-2 secretion Anti-CD3 stimulation; for fold induction at 1 µM: 1 μM Cbl-b inhibitor; for fold induction at 8 µM: 8 μM Cbl-b inhibitor
T-cell [3] = assay: CD25 cell surface staining on T-cells co-stimulated with anti-CD3 and anti-CD28 antibody (Biological Example 2); type: cell-based, human; conditions: Homo sapiens, T-cell, fold change over baseline, primary human total T-cells, read-out: CD25 staining Anti-CD3/Anti-CD28 stimulation; for fold induction at 0.3 µM: 0.3 μM Cbl-b inhibitor; for fold induction at 1 µM: 1 μM Cbl-b inhibitor; for fold induction at 4 µM: 4 μM Cbl-b inhibitor
How it was run: as §1

Row | Compound | fold induction at 0.3 µM (T-cell [1]) | fold induction at 1 µM (T-cell [1]) | fold induction at 4 µM (T-cell [1]) | pKd (Cbl-b (residues 36-427)) | fold induction at 1 µM (T-cell [2]) | fold induction at 8 µM (T-cell [2]) | fold induction at 0.3 µM (T-cell [3]) | fold induction at 1 µM (T-cell [3]) | fold induction at 4 µM (T-cell [3])
1 | Cc1cc(C)nc(C(=O)Nc2cccc([C@H](C)Sc3nncn3C)c2)c1 [Compound 56, (S)-4,6-dimethyl-N-(3-(1-((4-methyl-4H-1,2,4-triazol-3-yl)thio)ethyl)phenyl)picolinamide] | 2.51 to 5 | 5 to 7.5 | > 7.5 | 5.52 to 6.00 | < 0.05 | < 0.05 | 1.01 to 1.3 | 1.01 to 1.3 | 1.01 to 1.3
2 | Cc1ccc(C(=O)Nc2cccc([C@H](C)Sc3nncn3C)c2)nc1C(F)(F)F [Compound 61, (S)-5-methyl-N-(3-(1-((4-methyl-4H-1,2,4-triazol-3-yl)thio)ethyl)phenyl)-6-(trifluoromethyl)picolinamide] | < 1 | < 1 | 1.01 to 2.5 | 6.52 to 7.00 | < 0.05 | < 0.05 | < 1 | 1.01 to 1.3 | 1.01 to 1.3
3 | COc1nc(C(=O)Nc2cccc([C@H](C)Sc3nncn3C)c2)cc2ccccc12 [Compound 62, (S)-1-methoxy-N-(3-(1-((4-methyl-4H-1,2,4-triazol-3-yl)thio)ethyl)phenyl)isoquinoline-3-carboxamide] | 2.51 to 5 | 5 to 7.5 | > 7.5 | 6.00 to 6.52 | < 0.05 | 0.051 to 0.1 | < 1 | 1.01 to 1.3 | 1.01 to 1.3
4 | C[C@H](Sc1nncn1C)c1cccc(NC(=O)c2cc(C(F)(F)F)cc(C(F)(F)F)n2)c1 [Compound 64, (S)-N-(3-(1-((4-methyl-4H-1,2,4-triazol-3-yl)thio)ethyl)phenyl)-4,6-bis(trifluoromethyl)picolinamide] | < 1 | < 1 | 1.01 to 2.5 | 5.52 to 6.00 | < 0.05 | < 0.05 | < 1 | < 1 | 1.01 to 1.3
5 | C[C@H](Sc1nncn1C)c1cccc(NC(=O)c2cc(Cl)cc(C(F)(F)F)n2)c1 [Compound 68, (S)-4-chloro-N-(3-(1-((4-methyl-4H-1,2,4-triazol-3-yl)thio)ethyl)phenyl)-6-(trifluoromethyl)picolinamide] | 1.01 to 2.5 | 1.01 to 2.5 | 1.01 to 2.5 | 6.00 to 6.52 | < 0.05 | 0.051 to 0.1 | 1.01 to 1.3 | 1.01 to 1.3 | 1.01 to 1.3
6 | C[C@H](Sc1nncn1C)c1cccc(NC(=O)c2cc(C(F)(F)F)cc(C3CC3)n2)c1 [Compound 69, (S)-6-cyclopropyl-N-(3-(1-((4-methyl-4H-1,2,4-triazol-3-yl)thio)ethyl)phenyl)-4-(trifluoromethyl)picolinamide] | < 1 | < 1 | 1.01 to 2.5 | 5.00 to 5.52 | < 0.05 | < 0.05 | 1.01 to 1.3 | 1.01 to 1.3 | 1.31 to 1.5
7 | Cc1ncc(C(=O)Nc2cccc([C@H](C)Sc3nncn3C)c2)nc1C1CC1 [Compound 70, (S)-6-cyclopropyl-5-methyl-N-(3-(1-((4-methyl-4H-1,2,4-triazol-3-yl)thio)ethyl)phenyl)pyrazine-2-carboxamide] | < 1 | 1.01 to 2.5 | 2.51 to 5 | 6.00 to 6.52 | < 0.05 | 0.051 to 0.1 | 1.31 to 1.5 | 1.31 to 1.5 | 1.51 to 1.75
8 | COc1cc(C(=O)Nc2cccc([C@H](C)Sc3nncn3C)c2)nc(C(F)(F)F)c1 [Compound 71, (S)-4-methoxy-N-(3-(1-((4-methyl-4H-1,2,4-triazol-3-yl)thio)ethyl)phenyl)-6-(trifluoromethyl)picolinamide] | 2.51 to 5 | 2.51 to 5 | 5 to 7.5 | 6.52 to 7.00 | 0.051 to 0.1 | > 0.201 | 1.01 to 1.3 | 1.51 to 1.75 | > 1.76
9 | C[C@H](Sc1nncn1C)c1cccc(NC(=O)c2ccnc(C(F)(F)F)n2)c1 [Compound 75, N-[3-[(1S)-1-[(4-methyl-1,2,4-triazol-3-yl)sulfanyl]ethyl]phenyl]-2-(trifluoromethyl)pyrimidine-4-carboxamide] | 1.01 to 2.5 | 1.01 to 2.5 | 1.01 to 2.5 | 6.00 to 6.52 | < 0.05 | 0.051 to 0.1 | 1.01 to 1.3 | 1.01 to 1.3 | 1.01 to 1.3
10 | C[C@H](Sc1nncn1C)c1cccc(NC(=O)c2cncc(C(F)(F)F)n2)c1 [Compound 77, N-[3-[(1S)-1-[(4-methyl-1,2,4-triazol-3-yl)sulfanyl]ethyl]phenyl]-6-(trifluoromethyl)pyrazine-2-carboxamide] | < 1 | 1.01 to 2.5 | 1.01 to 2.5 | 5.52 to 6.00 | < 0.05 | < 0.05 | < 1 | 1.01 to 1.3 | 1.01 to 1.3
11 | C[C@H](Sc1nncn1C)c1cccc(NC(=O)c2cc3c(Cl)cccc3[nH]2)c1 [Compound 78, 4-chloro-A-[3-[(LS)-1-[(4-methyl-1,2,4-triazol-3-yl)sulfanyl]ethyl]phenyl]-1H-indole-2-carboxamide] | 1.01 to 2.5 | 1.01 to 2.5 | 2.51 to 5 | 6.52 to 7.00 | < 0.05 | > 0.201 | < 1 | 1.01 to 1.3 | 1.01 to 1.3
12 | C[C@H](Sc1nncn1C)c1cccc(NC(=O)c2cccc(S(C)(=O)=O)n2)c1 [Compound 80, (S)-N-(3-(1-((4-methyl-4H-1,2,4-triazol-3-yl)thio)ethyl)phenyl)-6-(methylsulfonyl)picolinamide] | < 1 | 1.01 to 2.5 | 1.01 to 2.5 | 5.00 to 5.52 | < 0.05 | < 0.05 | 1.01 to 1.3 | 1.01 to 1.3 | 1.01 to 1.3
13 | C[C@H](Sc1nncn1C)c1cccc(NC(=O)c2cccc(C(C)(F)F)n2)c1 [Compound 81, (S)-6-(1,1-difluoroethyl)-N-(3-(1-((4-methyl-4H-1,2,4-triazol-3-yl)thio)ethyl)phenyl)picolinamide] | < 1 | < 1 | 2.51 to 5 | 6.00 to 6.52 | < 0.05 | 0.151 to 0.2 | 1.01 to 1.3 | 1.51 to 1.75 | > 1.76
14 | C[C@H](Sc1nncn1C)c1cccc(NC(=O)c2cc(C(C)(C)O)cc(C(F)(F)F)n2)c1 [Compound 85, 4-(1-hydroxy-1-methyl-ethyl)-N-[3-[(1S)-1-[(4-methyl-1,2,4-triazol-3-yl)sulfanyl]ethyl]phenyl]-6-(trifluoromethyl)pyridine-2-carboxamide] | < 1 | < 1 | 1.01 to 2.5 | 6.00 to 6.52 | < 0.05 | < 0.05 | 1.01 to 1.3 | 1.01 to 1.3 | 1.01 to 1.3
15 | C[C@H](Sc1nncn1C)c1ccc(F)c(NC(=O)c2cccc(C(F)(F)F)n2)c1 [Compound 95a, (S)-N-(2-fluoro-5-(1-((4-methyl-4H-1,2,4-triazol-3-yl)thio)ethyl)phenyl)-6-(trifluoromethyl)picolinamide] | 1.01 to 2.5 | 1.01 to 2.5 | 2.51 to 5 | 5.52 to 6.00 | < 0.05 | 0.051 to 0.1 | < 1 | 1.01 to 1.3 | 1.01 to 1.3
16 | C[C@H](Sc1nnc[nH]1)c1cccc(NC(=O)c2cc3ccccc3cn2)c1 [Compound 98, (S)-N-(3-(1-((4H-1,2,4-triazol-3-yl)thio)ethyl)phenyl)isoquinoline-3-carboxamide] | 1.01 to 2.5 | 1.01 to 2.5 | 1.01 to 2.5 | 5.00 to 5.52 | 0.051 to 0.1 | 0.051 to 0.1 | < 1 | < 1 | < 1

From patent publication US20220324835A1 (Nurix Therapeutics, Inc., priority 2018, published 2022)
